Laboratory results as given in ChEMBL document CHEMBL3137667, “[Drug-induced liver injury; fourteenth updated edition of the bibliographic database of liver injuries and related drugs]” (Gastroenterol Clin Biol, 2004).

Tests used:
[1] = Highest frequency of moderate liver toxicity observed during clinical trials, expressed as a percentage. [column '% BIOL' in source]; conditions: human
[2] = human
[3] = human, serum
[4] = human; remark: listed apart in the source
[5] = human; remark: listed apart in the source
[6] = human, serum; remark: listed apart in the source
[7] = human; remark: listed apart in the source
[8] = human, serum, 4383 h
[9] = Times to onset, minimal and maximal, observed in the indexed observations. [column 'DELAI' in source]; conditions: human
[10] = human; remark: listed apart in the source
[11] = human; remark: listed apart in the source
[12] = human; remark: listed apart in the source
[13] = human; remark: listed apart in the source
[14] = human; remark: listed apart in the source
[15] = Highest frequency of acute liver toxicity observed during clinical trials, expressed as a percentage. [column '% AIGUE' in source]; conditions: human
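For Hepatotoxicity (association with vascular disease) in this document: count of indexed literature references reporting vascular liver injury in humans, e.g. peliosis hepatitis, hepatic veno-occlusive disease or Budd-Chiari syndrome.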
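For Hepatotoxicity (benign tumour) in this document: value is a count of indexed literature references citing a benign tumour confirmed by histopathology.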
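For Hepatotoxicity (choleostasis) in this document: human cholestatic liver injury, shown by histopathology or by peak ALT or AST elevation over alkaline phosphatase ratio below 2, value counts indexed literature reports.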
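For Hepatotoxicity (chronic liver disease) in this document: chronic liver injury confirmed by histopathology or persistently raised serum aminotransferase activity beyond 6 months, value given as the count of indexed literature references.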
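For Hepatotoxicity (cirrhosis) in this document: value is a count of indexed literature references reporting cirrhosis confirmed by histopathology.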
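For Hepatotoxicity (cytolytic) in this document: human cytolytic liver injury, shown by histopathology or by a ratio above 5 of peak ALT or AST elevation to alkaline phosphatase elevation, value counts indexed references.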
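For Hepatotoxicity (granulomatous hepatitis) in this document: value is a count of indexed literature references reporting granulomatous liver disease confirmed by histopathology.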
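For Hepatotoxicity (malignant tumour) in this document: malignant tumour confirmed by histopathology, value gives the count of indexed literature references reporting it.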
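For Hepatotoxicity (severe hepatitis) in this document: human clinical data: severe hepatitis, meaning potentially life-threatening liver failure or clinically observed cases, the value counts how many indexed literature references report it.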
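For Hepatotoxicity (steatosis) in this document: steatosis confirmed by histopathology, value is the count of indexed references.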

Compound	Hepatotoxicity (moderate) [1] [%]	Hepatotoxicity (steatosis) [2]	Hepatotoxicity (moderate) [3]	Hepatotoxicity (granulomatous hepatitis) [4]	Hepatotoxicity (cytolytic) [5]	Hepatotoxicity (acute) [6]	Hepatotoxicity (choleostasis) [7]	Hepatotoxicity (chronic liver disease) [8]	Hepatotoxicity (time to onset) [9]	Hepatotoxicity (malignant tumour) [10]	Hepatotoxicity (severe hepatitis) [11]	Hepatotoxicity (cirrhosis) [12]	Hepatotoxicity (association with vascular disease) [13]	Hepatotoxicity (benign tumour) [14]	Hepatotoxicity (acute) [15] [%]	Hepatotoxicity (moderate) ([1]; Liver) [%]	Hepatotoxicity (severe hepatitis) ([11]; Liver)	Hepatotoxicity (acute) ([15]; Liver) [%]
CS[C@H]1SC[C@H]2C(=O)N(C)[C@@H](C(C)C)C(=O)OC[C@@H](NC(=O)c3cnc4ccccc4n3)C(=O)N[C@@H](C)C(=O)N(C)[C@@H]1C(=O)N(C)[C@@H](C(C)C)C(=O)OC[C@@H](NC(=O)c1cnc3ccccc3n1)C(=O)N[C@@H](C)C(=O)N2C [ECHINOMYCIN]	29.4	0	8	0	3	4	0	0	4 days - 19 days	0	1	0	0	0	4.8	–	–	–
Clc1ccc(COC(Cn2ccnc2)c2ccc(Cl)cc2Cl)cc1 (stereo not given) [ECONAZOLE]	0	0	1	0	0	1	0	0	4 months	0	0	0	0	0	0	–	–	–
CC(=O)[C@H]1CC[C@H]2[C@@H]3CC[C@@H]4C[C@H](O)CC[C@]4(C)[C@H]3CC[C@]12C [ELTANOLONE]	12.6	0	2	0	0	0	0	0	1 days	0	0	0	0	0	0	–	–	–
CCn1cc(C(=O)O)c(=O)c2cc(F)c(N3CCNCC3)nc21 [ENOXACIN]	3.3	0	6	0	0	1	1	0	9 days	0	0	0	0	0	0	–	–	–
COc1cc2oc(=O)c(C)c(C)c2cc1OCCCN1CCN(c2ccccc2OC)CC1 [ENSACULIN]	8.3	0	1	0	0	0	0	0	2 weeks	0	0	0	0	0	0	–	–	–
CCN(CC)C(=O)/C(C#N)=C/c1cc(O)c(O)c([N+](=O)[O-])c1 [ENTACAPONE]	0	0	1	0	0	2	2	0	2 weeks - 6 weeks	0	0	0	0	0	0	–	–	–
CCC1(C)CC(=O)NC1=O (stereo not given) [ETHOSUXIMIDE]	0	0	2	0	0	0	0	0	1 month	0	0	0	0	0	0	–	–	–
CCNC1=Nc2ccc(Cl)cc2C(C)(c2ccccc2)O1 (stereo not given) [ETIFOXINE]	0	0	0	0	1	1	0	0	11 days	0	0	0	0	0	0	–	–	–
CCOC(=O)c1cncn1[C@H](C)c1ccccc1 [ETOMIDATE]	–	0	1	0	0	0	0	0	3 days - 5 days	0	–	0	0	0	–	5	0	0
NC(=O)OCC(COC(N)=O)c1ccccc1 [FELBAMATE]	7.1	0	4	0	2	4	0	0	13 days - 6 months	0	3	0	0	0	0	–	–	–
COc1ccc(OC[C@H]2CN(C)CC[C@@H]2c2ccccc2)cc1 [FEMOXETINE]	0	0	0	0	1	1	0	0	5 months	0	1	0	0	0	0	–	–	–
